Earlier results on 3 compounds are cited in patent US20090162442A1, “MULTI-PHASIC, NANO-STRUCTURED COMPOSITIONS CONTAINING A COMBINATION OF A FIBRATE AND A STATIN” (priority 2007, published 2009).

The mark [1] stands for this setting: American Family Physician, 2002, Vol. 65, No. 6, page 1173.

Turning to `CC(C)n1c(/C=C/C(O)CC(O)CC(=O)O)c(-c2ccc(F)cc2)c2ccccc21` (centres unmarked) [fluvastatin], the “bioavailability under fed conditions (food interaction)” value is recorded as “decrease”. Under setting [1], the “absorbed (rate of absorption)” value was 98% and the bioavailable entry is on record as “approximately 24%”.
On to `CC[C@H](C)C(=O)O[C@H]1C[C@@H](C)C=C2C=C[C@H](C)[C@H](CC[C@@H]3C[C@@H](O)CC(=O)O3)[C@H]21` [lovastatin], for which the “absorbed (rate of absorption)” value under setting [1] is “about 30%”.
As to `CC[C@H](C)C(=O)O[C@H]1C[C@H](O)C=C2C=C[C@H](C)[C@H](CC[C@@H](O)C[C@@H](O)CC(=O)O)[C@H]21` [pravastatin], the “bioavailability under fed conditions (food interaction)” value is given as “decrease”.
